Legend:
[1] = tested on: corn; assay: Test A pre-/postemergence greenhouse test; format: in vivo, Zea mays; details: for Plant response rating, Corn: 0 to 100 scale where 0 is no effect and 100 is complete control; for Corn plant response rating: 0 to 100 scale
Summary of the method: (§1)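 Sowing in loam/sand; same-day pre (directed soil spray) and post (foliar, 1–2 leaf, 2–10 cm) treatment with surfactant-containing non-phytotoxic solvent formulation; ~10 days in greenhouse; eye-scored injury against untreated plants.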

[2] = tested on: Surinam grass; assay: Test C pre-/postemergence test; format: in vivo, Brachiaria decumbens; details: for Surinam Grass plant response rating: preemergence, scale 0 (no effect) to 100 (complete control)
Summary of the method: (§2)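 Seeds were planted and treated preemergence with test chemical in a non-phytotoxic solvent mixture containing surfactant. Postemergence applications of the same formulation went onto plants 2 to 18 cm tall (1- to 4-leaf stage). A dash marks no test result.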

[3] = tested on: crabgrass; assay: Test C pre-/postemergence test; format: in vivo, Digitaria sanguinalis
Summary of the method: as §2

[4] = tested on: barnyardgrass; assay: Test C flooded paddy test; format: in vivo, Echinochloa crus-galli; details: Flood
Summary of the method: (§3)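 Under a constant 3 cm flood, test compounds went directly into the paddy water. Following 13 to 15 days of greenhouse growth, treated species and controls were compared by eye.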

[5] = tested on: wheat; assay: Test C pre-/postemergence test; format: in vivo, Triticum aestivum
Summary of the method: as §2

[6] = tested on: wild oat; assay: Test C pre-/postemergence test; format: in vivo, Avena fatua
Summary of the method: as §2

[7] = tested on: eastern black nightshade; assay: Test C pre-/postemergence test; format: in vivo, Solanum ptycanthum
Source text: Seeds of plant species selected from blackgrass (Alopecurus myosuroides), downy brome (Bromus tectorum), green foxtail (Setaria viridis), Italian ryegrass (Lolium multiflorum), wheat (Triticum aestivum), wild oat (Avena fatua), catchweed bedstraw (Galium aparine), Russian thistle (Salsola kali), […] (Cynodon dactylon), Surinam grass (Brachiaria decumbens), cocklebur (Xanthium strumarium), corn (Zea mays), crabgrass (Digitaria sanguinalis), woolly cupgrass (Eriochloa villosa), giant foxtail (Setaria faberii), Goosegrass (Eleusin indica), johnsongrass (Sorghum halepense), kochia (Kochia scoparia), lambsquarters (Chenopodium album), morningglory (Ipomoea coccinea), eastern black nightshade (Solanum ptycanthum), yellow nutsedge (Cyperus esculentus), pigweed (Amaranthus retroflexus), common ragweed (Ambrosia elation), soybean (Glycine max), common (oilseed) sunflower (Helianthus annuus), and velvetleaf (Abutilon theophrasti) were planted and treated preemergence with test chemicals formulated in a non-phytotoxic solvent mixture which included a surfactant. At the same time, plants selected from these crop and weed species and also winter barley (Hordeum vulgare), canarygrass (Phalaris minor), and chickweed (Stellaria media) were treated with postemergence applications of some of the test chemicals formulated in the same manner. Plants ranged in height from 2 to 18 cm (1- to 4-leaf stage) for postemergence treatments. […] At time of treatment, test pots were flooded to 3 cm above the soil surface, treated by application of test compounds directly to the paddy water, and then maintained at that water depth for the duration of the test. […] A dash (-) response means no test result.

[8] = tested on: pigweed; assay: Test C pre-/postemergence test; format: in vivo, Amaranthus retroflexus
Summary of the method: as §2

[9] = tested on: bermudagrass; assay: Test C pre-/postemergence test; format: in vivo, Cynodon dactylon
Summary of the method: as §2

[10] = tested on: redroot pigweed; assay: Test A pre-/postemergence greenhouse test; format: in vivo, Amaranthus retroflexus; details: for Plant response rating, Pigweed: 0 to 100 scale where 0 is no effect and 100 is complete control; for Pigweed plant response rating: 0 to 100 scale
Summary of the method: as §1

[11] = tested on: velvetleaf; assay: Test C pre-/postemergence test; format: in vivo, Abutilon theophrasti
Summary of the method: as §2

[12] = tested on: rice; assay: Test C flooded paddy test; format: in vivo, Oryza sativa; details: Flood
Summary of the method: as §3

[13] = tested on: kochia; assay: Test C pre-/postemergence test; format: in vivo, Kochia scoparia
Summary of the method: as §2

[14] = tested on: common (oilseed) sunflower; assay: Test C pre-/postemergence test; format: in vivo, Helianthus annuus
Summary of the method: as §2

[15] = tested on: blackgrass; assay: Test C pre-/postemergence test; format: in vivo, Alopecurus myosuroides
Summary of the method: as §2

[16] = tested on: duck salad; assay: Test C flooded paddy test; format: in vivo, Heteranthera limosa; details: Flood
Summary of the method: as §3

[17] = Postemergence, 500 g ai/ha, 0 is no effect, 100 is complete control
[18] = Preemergence, 125 g ai/ha, 0 no effect, 100 complete control
[19] = Preemergence, 31 g ai/ha, scale 0 to 100 (0 no effect, 100 complete control)
[20] = 62 g ai/ha, Preemergence, scale 0 to 100
[21] = 125 g ai/ha, preemergence, scale 0 (no effect) to 100 (complete control)
[22] = preemergence, 250 g ai/ha, scale 0 (no effect) to 100 (complete control)
[23] = 62 g ai/ha, scale 0 to 100 (0 no effect, 100 complete control)
[24] = 250 g ai/ha, scale 0 to 100, 0 no effect, 100 complete control, 13 to 15 days

## Cn1nc(C(F)(F)F)c(CS(=O)(=O)c2ccc(Cl)c[n+]2[O-])c1OCC(F)(F)F [Compound 73]
[1]; Postemergence, 125 g ai/ha
  Plant response rating, Corn: 0
[1]; [17]
  Corn plant response rating: 0
[1]; [18]
  Corn plant response rating: 0
[1]; Preemergence, 500 g ai/ha
  Plant response rating, Corn: 30
[2]; 125 g ai/ha
  Surinam Grass plant response rating: 80
[2]; [19]
  Plant response rating, Surinam Grass: 40
[2]; 250 g ai/ha
  Surinam Grass plant response rating: 80
[3]; [20]
  Crabgrass, Large plant response rating: 85
[3]; [21]
  Crabgrass, Large plant response rating: 85
[3]; [19]
  Plant response rating, Crabgrass, Large: 85
[3]; [22]
  Crabgrass, Large plant response rating: 95
[4]; [23]
  Plant response rating, Barnyardgrass: 0
[4]; [24]
  Plant response rating, Barnyardgrass: 65
[5]; [20]
  Wheat plant response rating: 0
[5]; [21]
  Wheat plant response rating: 10
[5]; [19]
  Plant response rating, Wheat: 0
[5]; [22]
  Wheat plant response rating: 20
[6]; [20]
  Oat, Wild plant response rating: 40
[6]; [21]
  Oat, Wild plant response rating: 60
[6]; [19]
  Plant response rating, Oat, Wild: 40
[6]; [22]
  Oat, Wild plant response rating: 90
[7]; [20]
  Nightshade plant response rating: 80
[7]; [21]
  Nightshade plant response rating: 80
[7]; [19]
  Plant response rating, Nightshade: 0
[7]; [22]
  Nightshade plant response rating: 85
[8]; [20]
  Pigweed plant response rating: 100
[8]; [21]
  Pigweed plant response rating: 100
[8]; [19]
  Plant response rating, Pigweed: 90
[8]; [22]
  Pigweed plant response rating: 100
[9]; 62 g ai/ha, Preemergence, scale 0 to 100 (0 no effect, 100 complete control)
  Bermudagrass plant response rating: 100
[9]; [21]
  Bermudagrass plant response rating: 100
[9]; [19]
  Plant response rating, Bermudagrass: 80
[9]; [22]
  Bermudagrass plant response rating: 100
[10]; Postemergence, 125 g ai/ha
  Plant response rating, Pigweed: 10
[10]; [17]
  Pigweed plant response rating: 60
[10]; [18]
  Pigweed plant response rating: 90
[10]; Preemergence, 500 g ai/ha
  Plant response rating, Pigweed: 100
[11]; [20]
  Velvetleaf plant response rating: 30
[11]; [21]
  Velvetleaf plant response rating: 40
[11]; [19]
  Plant response rating, Velvetleaf: 0
[11]; [22]
  Velvetleaf plant response rating: 70
[12]; [23]
  Plant response rating, Rice: 0
[12]; [24]
  Plant response rating, Rice: 20
[13]; [20]
  Kochia plant response rating: 100
[13]; [21]
  Kochia plant response rating: 100
[13]; [19]
  Plant response rating, Kochia: 60
[13]; [22]
  Kochia plant response rating: 100
[14]; [20]
  Sunflower plant response rating: 0
[14]; [21]
  Sunflower plant response rating: 35
[14]; [19]
  Plant response rating, Sunflower: 0
[14]; [22]
  Sunflower plant response rating: 40
[15]; [20]
  Blackgrass plant response rating: 98
[15]; [21]
  Blackgrass plant response rating: 100
[15]; [19]
  Plant response rating, Blackgrass: 98
[15]; [22]
  Blackgrass plant response rating: 100
[16]; [23]
  Plant response rating, Ducksalad: 70
[16]; [24]
  Plant response rating, Ducksalad: 85

Source: US20100298141A1, “SUBSTITUTED PYRIDINE N-OXIDE HERBICIDES” (E. I. DU PONT DE NEMOURS AND COMPANY, priority 2007, published 2010)
